Experimental data taken from patent US4269831A, “Topical dermatological method of use of an androstenopyrazole” (priority 1979, dated 1981).

Legend:
[1] = system: flank organ of mature male Syrian golden hamsters; assay: Topical comparison in mature male hamsters, right flank organ treated, left flank organ vehicle (Tables II, III); format: in vivo; conditions: for Flank organ Diameter, RFO / Flank organ Weight, RFO / Flank organ Development, RFO (median score): treated right flank organ; for Flank organ Diameter, RFO / Flank organ Weight, RFO: mean; for Flank organ Diameter, RFO / Flank organ Weight, RFO / Flank organ Development, RFO (median score) / Flank Organ (Mean Score) Area / Flank Organ (Mean Score) Elevation / Flank Organ (Mean Score) Hair Growth / Flank Organ (Mean Score) Hair Pigmentation / Flank Organ (Mean Score) Skin Pigmentation: n=7; for Flank organ Development, RFO (median score): scale 0 to 4 (0 barely visible, 4 as in mature male); for Flank Organ (Mean Score) Area / Flank Organ (Mean Score) Elevation / Flank Organ (Mean Score) Hair Growth / Flank Organ (Mean Score) Hair Pigmentation / Flank Organ (Mean Score) Skin Pigmentation: RFO, scale 0 to 4
Source text: Each flank organ of mature male Syrian golden hamsters having a mean initial body weight of 105 g. was medicated topically with the compound of Formula I dissolved in ethanol (5 microliters) for twenty-one days. Flank organ hair was clipped three times per week to facilitate application. On the day following the last medication the hamsters were killed with an overdose of sodium pentobarbital. The flank organ parameters and the weights of seminal vesicles, adrenals and thymus glands were determined. Flank organ diameter was measured parallel to the breadth of the hamster with vernier calipers. Wet weights were obtained on flank organs excised around the periphery of the pigmented area. The topical activity of the compound of Formula I was also compared with that of 17β-hydroxy-17α-propylandrost-4-en-3-one, an antiandrogen, and hydrocortisone. In this experiment the right flank organ was treated with the test compound while vehicle-treated left flank organ served as control. […] In addition, the individual characteristics of the flank organ, elevation (thickness relative to adjacent skin), area, hair pigment, skin pigment and hair growth were all scored separately on a scale of 0 to 4.

[2] = system: castrated immature male Syrian golden hamsters; assay: Systemic antiandrogenic and glucocorticoid activity, subcutaneous, with testosterone propionate (Table IV); format: in vivo; conditions: mean, n=8
Protocol: A solution of the compound of Formula I in cottonseed oil was administered subcutaneously at 1 ml./kg. to castrated immature male Syrian golden hamsters having a mean initial body weight of 79 g. for 14 consecutive days concurrently with testosterone propionate. On the day following the last medication the hamsters were killed, the flank organ parameters were determined and the weights of seminal vesicles, adrenals and thymus glands were obtained.

[3] = system: male hamster flank organ hair; assay: Rate of flank organ hair growth by 35S-cystine pulse labelling (Table V); format: in vivo, Syrian golden hamsters; conditions: right flank organ, 5 microliters 0.1% solution daily for 14 days; mean ± SE, n=8
Protocol: In a second test all hair was clipped from the flank organs of 8 male Syrian golden hamsters having a mean body weight of 116 g. on the first day of the study. The hamsters were medicated daily with 5 microliters of ethanol on the left flank organ and 5 microliters of a 0.1% solution of the compound of Formula I in ethanol on the right flank organ for 14 consecutive days. On days 4, 8 and 12 each hamster was injected subcutaneously with 30 microcuries of ^35 S-cystine (0.72 nmole) dissolved in ethanol-saline (0.1 ml., 1:9, v/v). On day 15 several hairs were plucked from each flank organ. The hairs were exposed to X-ray film for 4 weeks. The distances between the radioactive sites and the hair resulting from the three pulses of ^35 S-cystine were measured and the daily rate of hair-growth was determined. As shown by Table V the rate of hair growth was reduced after 12 days of treatment.

[4] = system: supracaudal glands of mature male guinea pigs; assay: Topical study on supracaudal glands of guinea pigs; format: in vivo; conditions: 21 days
Protocol: The supracaudal glands of mature male guinea pigs having a mean initial body weight of 431 g. (8 guinea pigs per group) were medicated topically with a solution of the compound of Formula I (400 micrograms) in ethanol (10 microliters). Guinea pigs treated with ethanol served as controls. After 21 days of treatment the guinea pigs were killed and the areas of the supracaudal glands (pi×long radius×short radius) were measured in situ with calipers. The weights of seminal vesicles, adrenals and thymus glands were also measured.

[5] = system: hair growth on backs of male adrenalectomized Sprague-Dawley rats; assay: Reduction in hair growth in male adrenalectomized rats, topical (Table VII); format: in vivo; conditions: 0.1% solution topical
Source text: Hair was clipped from the backs of male Sprague-Dawley rats, having a mean body weight of 300 g., three weeks after adrenalectomy. The clipped area (4 cm.×4 cm.) was medicated with approximately 500 microliters of 0.1% solution of the compound of Formula I, or hydrocortisone or 500 microliters of ethanol alone for a two-week pretreatment period. The clipped area was then depilated and the medication with either solution or ethanol alone was continued for 4 weeks. The density of hair growth was scored visually at weekly intervals and at termination of the experiment on a scale of 0 to 4 (0, no hair growth; 4, complete hair regrowth). Skinfold thickness was also measured using a micrometer at the end of the experiment, which was conducted blind.

[6] = 2.5 mg/kg/day sc for 14 days with testosterone propionate 0.4 mg/kg/day
[7] = 5 mg/kg/day sc for 14 days with testosterone propionate 0.4 mg/kg/day
[8] = after depilation, median score, scale 0 to 4, n=12

Structure (SMILES): CC#C[C@]1(O)CC[C@H]2[C@@H]3C[C@H](C)C4=Cc5[nH]ncc5C[C@]4(C)[C@H]3CC[C@@]21C [Compound of Formula I, 17β-Hydroxy-6α-methyl-17α-propynyl-4-androsteno[3,2-c]-pyrazole]
- Flank organ Diameter, RFO ([1]; 5 μg/RFO for 21 days): 5.2 mm
- Flank organ Weight, RFO ([1]; 5 μg/RFO for 21 days): 35.9 mg
- Flank organ Development, RFO (median score) ([1]; 5 μg/RFO for 21 days): 3
- Flank organ Diameter, RFO ([1]; 50 μg/RFO for 21 days): 5.0 mm
- Flank organ Weight, RFO ([1]; 50 μg/RFO for 21 days): 33.2 mg
- Flank organ Development, RFO (median score) ([1]; 50 μg/RFO for 21 days): 3
- Dose response of flank organ inhibition ([1]; 5 and 50 μg/RFO topical for 21 days): flat dose response curve
- Flank Organ (Mean Score) Area ([1]; 5 μg/flank organ for 21 days): 3.3
- Flank Organ (Mean Score) Elevation ([1]; 5 μg/flank organ for 21 days): 3.1
- Flank Organ (Mean Score) Hair Growth ([1]; 5 μg/flank organ for 21 days): 1.4
- Flank Organ (Mean Score) Hair Pigmentation ([1]; 5 μg/flank organ for 21 days): 3.6
- Flank Organ (Mean Score) Skin Pigmentation ([1]; 5 μg/flank organ for 21 days): 3.3
- Flank Organ (Mean Score) Area ([1]; 50 μg/flank organ for 21 days): 3.0
- Flank Organ (Mean Score) Elevation ([1]; 50 μg/flank organ for 21 days): 2.6
- Flank Organ (Mean Score) Hair Growth ([1]; 50 μg/flank organ for 21 days): 0
- Flank Organ (Mean Score) Hair Pigmentation ([1]; 50 μg/flank organ for 21 days): 3.0
- Flank Organ (Mean Score) Skin Pigmentation ([1]; 50 μg/flank organ for 21 days): 3.1
- Final Body Weight [2, 6]: 99
- Flank Organ Diameter [2, 6]: 4.0 mm
- Flank Organ Wet Weight [2, 6]: 19.5 mg
- Organ Weights: Adrenals [2, 6]: 12.7 mg
- Organ Weights: Seminal Vesicles [2, 6]: 135 mg
- Organ Weights: Thymus [2, 6]: 28 mg
- Final Body Weight [2, 7]: 93
- Flank Organ Diameter [2, 7]: 3.6 mm
- Flank Organ Wet Weight [2, 7]: 15.0 mg
- Organ Weights: Adrenals [2, 7]: 12.3 mg
- Organ Weights: Seminal Vesicles [2, 7]: 107 mg
- Organ Weights: Thymus [2, 7]: 14 mg
- Rate of Hair Growth, First Interval (Day 4-8) [3]: .504 ± .014 mm/day
- Rate of Hair Growth, Second Interval (Day 9-12) [3]: .566 ± .014 mm/day
- Average area of the supracaudal glands ([4]; 400 micrograms in 10 microliters ethanol topical, control 104±7, p<0.01): 72±6 sq. mm.
- Changes in weights of seminal vesicles, adrenals or thymus glands ([4]; 400 micrograms topical, versus control group): No changes
- Hair Growth Score, Treatment week 1 [5, 8]: 0
- Hair Growth Score, Treatment week 2 [5, 8]: 0
- Hair Growth Score, Treatment week 3 [5, 8]: .5
- Hair Growth Score, Treatment week 4 [5, 8]: 1
- Skinfold Thickness, Treatment week 4 ([5]; mean, n=12, vehicle 2.51): 1.82 mm
- Hair Growth Score, Pretreatment week 1 ([5]; median score, scale 0 to 4 (0 no hair growth, 4 complete regrowth), n=12): 1
- Hair Growth Score, Pretreatment week 2 ([5]; median score, scale 0 to 4, n=12): 2.5
- Skin thickness compared with hydrocortisone-treated rats ([5]; p<0.02): thinner
